Measured values as given in paper PMC9114799, “In vitro Evaluation of Isoniazid Derivatives as Potential Agents Against Drug-Resistant Tuberculosis” (Frontiers in Pharmacology, 2022).
Values after ≈ are worked out from the molar mass of the structure shown. Values joined by “and” are separate entries in the source; they are usually repeats but may differ in a detail not shown here. Equal values may be shown once. Read-outs that look alike come from different tables or passages of the source. Marks after values point to notes of the source that are not given here.

Legend:
[1] = format: physicochemical; details: for stability in aqueous solution: pH 7.4; for fluctuation of the absorption spectra in the UV region: over 3 days, PBS pH 7.4 with 5 % DMSO, N33red at 240 nm, N34red at 269 nm
Protocol: INH-C10, N33 and N34 were obtained as fully described in reference ([Martins et al., 2014]). N33red and N34red were obtained by reduction of the parent Schiff base. Sodium cyanoborohydride (2 equiv.) was added portion wise to a solution of N33 or N34 in hot methanol. The reaction mixture was acidified with methanolic HCl 5M until pH 3; at that point the solution color changed to dark yellow. The reaction was kept under reflux and monitored by TLC until the starting material was consumed. The solvent was then evaporated under reduced pressure, giving an orange-yellow oil. This residue was dissolved in water and basified to pH > 7 by addition of a few drops of NaOH 6 M, to break up the possible cyanoborate adducts. The solution was then washed with brine and extracted several times with dichloromethane, the combined organic extracts were dried with MgSO4 and the solvent evaporated under reduced pressure affording crude yellowish solids. Pure N33red and N34red were obtained after column chromatography with Et2O/MeOH 96.5:3.5 and by recrystallization from CH2Cl2/petroleum ether 2:3, respectively (adapted from ([Borch et al., 1971])). Both N33red and N34red are very stable in aqueous solution (PBS with 5% DMSO) for at least 48 h (Supplementary Figure S5).
Figure S5 – Electronic absorption spectra of N33red and N34red in PBS buffer pH 7.4 with 5 % DMSO
were monitored over 3 days. The fluctuation of the spectra in the UV region of N33red at 240 nm was
less than 1.2% while for N34red at 269 nm was less than 2.5%. The time dependence of the absorbance
uncertainty, thus confirming the stability of both compounds for at least 3 days.

[2] = target: warfarin binding site of HSA (Sudlow's binding site I) (Homo sapiens, UniProt P02768); assay: Competitive binding with warfarin (HSA Sudlow's binding site I)
Protocol: Warfarin stock solution was also prepared with DMSO.
The interaction of INH and its derivatives with HSA was further examined regarding their putative binding site.
Using the dampening in the fluorescence intensity of warfarin it is possible to retrieve the HSA-compound dissociation constant for the binding site of warfarin (K dc) - Table 3.
From this variation it is possible to retrieve C50, the concentration of compound that displaces half of […]
This concentration is given by the fluorescence intensity corresponding to […]
the intensity of warfarin in water (buffer), which was obtained for warfarin in PBS in the absence of HSA. The C50 value was retrieved for each replicate and the average was used to calculate the Kdc of […]
(1 picture or pasted object on this page, not shown here)

[3] = Octanol-water partition coefficient, shake-flask method; format: physicochemical; details: pH 7.5, room temperature, preliminary assessment
Protocol: Lipophilicity was evaluated as log Po/w, the octanol-water partition coefficient obtained by the shake-flask method ([Ràfols et al., 2012]; [Martins et al., 2014]), and as log Kp(NaDS/w) the partition coefficient towards sodium dodecyl sulfate (NaDS) anionic micelles obtained by differential spectrophotometry for INH, INH-C10, N33 and N34 in previous works ([Ràfols et al., 2012]; [Martins et al., 2014]; [Santos et al., 2020]). […] For both compounds, samples were dissolved in water-saturated octanol at pH 7.5 (KH2PO4/NaOH) to guarantee negligible ionization. The partition to octanol-saturated aqueous buffer was evaluated, at room temperature, using a volume ratio, ro/w, of 5/30 and 10/30 for N33red and 2.5/40, 5/40 for N34red, after sonication of the solutions and partition on a mechanical tumbler. Equilibrium concentrations were determined by UV-Vis spectrophotometry between 200 and 500 nm after phase separation.

[4] = test system: M. tuberculosis H37Rv ATCC27294 (wt); assay: microbe, parasite or virus in culture; format: cell-based; set-up: MIC (wt): unit not given here; details: for MIC: Mycobacterium tuberculosis, wt Mtb H37Rv, tested from 0.03125 to 128 µM; for MIC (wt): Table S1; for activity against the wild-type strain: in words
[5] = target: T1, human serum albumin (HSA) (Homo sapiens, UniProt P02768); details: for 10-3 K’b / M-1, HSA binding constant from fluorescence intensity variation not accounted for by the decrease in lifetime: head prints 10-3 K’b / M-1, reverse of the dissociation constant
Protocol: (§1) INH and INH derivatives stock solutions were prepared in DMSO. From the stock solutions, appropriate dilutions were prepared so that each compound was added to HSA in PBS at different concentrations ensuring that DMSO was at a fixed concentration of 5% (v/v) in the final solution. […] Three or more independent replicates were prepared and analyzed for each system.
Quartz Suprasil® cuvettes with 1 × 0.4 cm path length were used to gather the spectroscopic data.
The bandwidth was 4 nm in both excitation and emission paths.
Whenever the decrease in τ¯ is smaller than the decrease in the steady-state fluorescence intensity, there are multiple quenching mechanisms responsible for a decrease in fluorescence quantum yield, one affecting the amplitude-weighted mean fluorescence lifetime and the fluorescence intensity alike, and another affecting only the fluorescence intensity (a static quenching mechanism). Therefore, for each data point, the decrease in fluorescence intensity that was not due to a decrease in τ¯ was calculated. These values were used to obtain yet another dissociation constant that corresponds to the binding process affecting only the steady-state fluorescence intensity, also shown in Table 3 (K’d). […] This is a consequence of the much larger relative decrease in fluorescence intensity when compared with the decrease in fluorescence lifetime.
For a static quenching mechanism, K represents the association constant for the formation of non-fluorescent HSA-compound ground-state complex. Therefore, the reverse of K gives an estimate of the dissociation constant. By fitting a straight line to the data in Figure 8 forcing a unitary intercept, i.e., assuming a Stern-Volmer-like behaviour, a reasonable correlation coefficient was obtained in all cases.

HepG2 cells = assay: HepG2 cell viability assay (MTT), 72 h; format: cell-based, human; details: for IC50: Homo sapiens, HepG2, 72 h incubation, MTT, 0.5% DMSO, read-out: IC50 against HepG2 cells
Protocol: HepG2 cells were plated on 384-well tissue culture treated polystyrene plates at 2000 cells in 25 μl of HepG2 maintenance medium per well. After an overnight incubation at 37°C, the cells were dosed with test compounds in dimethyl sulfoxide (DMSO) and controls over wide ranges of concentrations (Table 1) and incubated for 72 h at 37°C. DMSO was at 0.5% in the final solution. The aqueous solubility of the compounds limited the range of concentrations tested. Cell viability was measured using the Promega CellTiter 96 Non-Radioactive Cell Proliferation Assay (MTT) kit by adding the Dye Solution to each well and incubating for 3 h at 37°C. After incubation, the Solubilization Solution/Stop Mix was added to each well. Plates were incubated at 37°C for 1 h, mixed on a plate shaker for 10 min and then absorbance was read at 570 nm. Cell viability was determined by comparison against control cells in the presence of DMSO only and was measured in three independent replicates for each compound concentration. The IC50 was calculated with GraphPad Prism using a Sigmoidal Dose-response (variable slope) algorithm. Chlorpromazine, a drug with a well-known and characterized hepatotoxicity ([Frötschl et al., 2005]; [Gandhi et al., 2013]; [Morgan et al., 2019]), was used as the positive control.
To evaluate the in vitro toxicity of this series of INH derivatives, the viability of HepG2 cells, a human liver cancer cell line, was determined by the MTT tetrazolium reduction assay ([Riss et al., 2013]), a colorimetric assay to assess cell metabolic activity, and the IC50 value, i.e., the concentration for 50% reduction in cell viability, was obtained for each compound (Supplementary Figure S6). […] The hepatoxicity of INH is well described ([Girling, 1978]; [Wu and Cederbaum, 1996]; [Huang et al., 2003]; [Bhadauria et al., 2007]; [Singh et al., 2011]) and is much lower than that of chlorpromazine.

HepG2 = details: cited from earlier work
[6] = octanol-water, cited from earlier work
[7] = target: T1, human serum albumin (HSA); details: for 10-3 K’’b / M-1, HSA binding constant from the variation in amplitude-weighted mean fluorescence lifetime: head prints 10-3 K’’b / M-1, reverse of the dissociation constant
Protocol: as §1
Time-resolved fluorescence measurements were carried out by the single photon counting technique, using a nanoLED N-280 (Horiba Jobin Yvon, Villeneuve D'ascq, France) for the excitation of the protein. […] Ludox® was the scattering agent used to obtain the instrumental response function. The experimental fluorescence intensity decays were analysed with the software TRFA® version 1.4 (Minsk, Belarus). The fluorescence intensity decays, I(t), were analysed by fitting a sum of exponentials, and the decay law was then obtained according to Eq. 1: I(t)= ∑i=1nαi⁡exp(−t/τi) (1) where α i and τ i are the normalized amplitude and lifetime of component i, respectively.
The changes in quantum yield due to processes affecting the fluorescence lifetime were assessed from the amplitude-weighted mean fluorescence lifetime, τ¯ , calculated using Eq. 2: τ¯=∑i=1nαiτi (2)
When used to analyse time-resolved fluorescence data, F is replaced by τ¯ .

[8] = test system: M. tuberculosis H37Rv ATCC27294 (wt); details: ref Martins et al., cited from earlier work
[9] = target: T1, human serum albumin (HSA); set-up: purchased Merck (Sigma-Aldrich) A9511; method as in Ascenzi et al., 2011; details: ref Ascenzi et al., 2011; read-out: K d for HSA previously reported; cited from earlier work
[10] = HepG2, 72 h incubation, ref Lupien et al., 2018
[11] = head prints 10-3 Kbc / M-1, equimolar HSA and warfarin, reverse of the dissociation constant

Chain of warfarin binding site of HSA (Sudlow's binding site I) (P02768 25-609): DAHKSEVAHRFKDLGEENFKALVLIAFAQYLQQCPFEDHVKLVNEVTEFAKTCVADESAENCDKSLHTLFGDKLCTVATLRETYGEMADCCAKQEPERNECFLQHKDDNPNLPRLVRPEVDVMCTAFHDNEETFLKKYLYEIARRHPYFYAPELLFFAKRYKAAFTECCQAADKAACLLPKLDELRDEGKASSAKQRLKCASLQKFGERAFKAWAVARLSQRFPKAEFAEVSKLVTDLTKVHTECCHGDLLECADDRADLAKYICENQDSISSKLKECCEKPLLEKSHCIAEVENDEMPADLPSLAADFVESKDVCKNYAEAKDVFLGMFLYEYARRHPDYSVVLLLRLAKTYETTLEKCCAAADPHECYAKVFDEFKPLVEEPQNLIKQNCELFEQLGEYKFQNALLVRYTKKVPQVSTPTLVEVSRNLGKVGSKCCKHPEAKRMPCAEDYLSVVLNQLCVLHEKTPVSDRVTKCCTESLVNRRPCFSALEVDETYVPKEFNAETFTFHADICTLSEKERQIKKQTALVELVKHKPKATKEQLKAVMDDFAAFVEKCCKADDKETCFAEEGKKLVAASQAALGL
T1 sequence (P02768 25-609): as above

| SMILES | Kd [2] | Kd [5] | 10-3 K’b / M-1, HSA binding constant from fluorescence intensity variation not accounted for by the decrease in lifetime [5] | IC50 (HepG2 cells) | 10-3 Kbc / M-1, binding constant for the warfarin binding site [2, 11] | Kd [7] | MIC (wt) ([8]; wt Mtb H37Rv, 2014) | also measured |
| --- | --- | --- | --- | --- | --- | --- | --- | --- |
| COC(=O)c1ccc(CNNC(=O)c2ccncc2)cc1 [Compound N33red, methyl 4-((2-isonicotinoylhydrazinyl)methyl)benzoate] | 900 ± 300 µM | 600 µM (2×) and 560 µM | 1.77 ± 0.65 10^3 M-1 | > 200 µM | – | – | – | stability in aqueous solution ([1]; 48 h): at least 48 h; stability in aqueous solution ([1]; 3 days): at least 3 days; fluctuation of the absorption spectra in the UV region [1]: less than 1.2%; Kd ([2]; 10-3 Kbc / M-1, binding constant for the warfarin binding site, head prints 10-3 Kbc / M-1, equimolar HSA and warfarin, reverse of the dissociation constant): 746 µM; logP [3]: 1.33 ± 0.04; MIC [4]: 2 µM (≈ 0.571 µg/mL); MIC (wt) [4]: 0.6; activity against the wild-type strain [4]: active |
| COc1nc2ccc(Br)cc2cc1[C@@H](c1ccccc1)[C@@](O)(CCN(C)C)c1cccc2ccccc12 [bedaquiline] | – | – | – | – | – | – | – | IC50 (HepG2; [10]): 17.4 µM |
| C[C@]1(COc2ccc(N3CCC(Oc4ccc(OC(F)(F)F)cc4)CC3)cc2)Cn2cc([N+](=O)[O-])nc2O1 [delamanid] | – | – | – | – | – | – | – | IC50 (HepG2; [10]): 98.9 µM |
| CCCCCCCCCC(=O)NNC(=O)c1ccncc1 [INH-C10, N′-decanoylisonicotinoylhydrazide] | 400 ± 200 µM | 46 µM and 50 µM and 70 µM | 18.6 ± 5.58 10^3 M-1 | > 25 µM | 2.43 ± 0.86 10^3 M-1 | 120 ± 3 µM | 0.38 ^a µM | log P o/w ± SD ([6]; ref Ràfols et al., 2012): 3.5 ± 0.2 ^b; 10-3 K’’b / M-1, HSA binding constant from the variation in amplitude-weighted mean fluorescence lifetime [7]: 8.33 ± 0.21 10^3 M-1 |
| CO[C@H]1/C=C/O[C@@]2(C)Oc3c(C)c(O)c4c(O)c(c(/C=N/N5CCN(C)CC5)c(O)c4c3C2=O)NC(=O)/C(C)=C\C=C\[C@H](C)[C@H](O)[C@@H](C)[C@@H](O)[C@@H](C)[C@H](OC(C)=O)[C@@H]1C [Rifampin] | – | – | – | – | – | – | – | IC50 (HepG2; ref Vahdati-Mashhadian et al., 2013): 25.5 µM |
| O=C(NNCc1ccc(Oc2ccccc2)cc1)c1ccncc1 [Compound N34red, N'-(4-phenoxybenzyl)isonicotinohydrazide] | 340 ± 20 µM | 150 µM and 140 µM and 90 µM | – | 48.5 µM | 2.99 ± 0.17 10^3 M-1 | 730 µM | – | stability in aqueous solution ([1]; 48 h): at least 48 h; stability in aqueous solution ([1]; 3 days): at least 3 days; fluctuation of the absorption spectra in the UV region [1]: less than 2.5%; logP [3]: 2.6 ± 0.2; MIC [4]: 1 µM (≈ 0.319 µg/mL); MIC (wt) [4]: 0.3; activity against the wild-type strain [4]: active |
| COC(=O)c1ccc(/C=N/NC(=O)c2ccncc2)cc1 [Compound N33, methyl (E)-4-((2-isonicotinoylhydrazineylidene)methyl)benzoate] | 54 ± 4 µM | 160 µM and 200 µM and 120 µM | 5.00 ± 2.50 10^3 M-1 | > 25 µM | 18.5 ± 1.3 10^3 M-1 | 80 ± 60 µM | 1.06 ^a µM | log P o/w ± SD ([6]; ref Martins et al., 2014): 1.32 ± 0.06 ^c; 10-3 K’’b / M-1, HSA binding constant from the variation in amplitude-weighted mean fluorescence lifetime [7]: 12.5 ± 9.4 10^3 M-1 |
| NNC(=O)c1ccncc1 [INH, isonicotinoylhydrazide, reference compound] | 4550 ± 50 µM | 2.72 mM (2×) and 1.65 mM | 0.37 ± 0.01 10^3 M-1 | > 200 µM | 0.22 ± 0.01 10^3 M-1 | – | 0.29 ^a µM | Kd [9]: 390 µM; log P o/w ± SD ([6]; ref Ràfols et al., 2012): −0.85 ± 0.01 ^b; MIC (wt) ([8]; Table S1, 2014 (per Table 2)): 0.04 g/mL (≈ 292 mM); Kd ([5]; K d for HSA, fluorescence intensity corrected for inner filter effects, steady-state fluorescence, text and Figure S7): ~1000 µM; effect on HepG2 cell viability (HepG2 cells; up to 200 µM, 72 h): did not significantly affect HepG2 cell viability |
| CN(C)CCCN1c2ccccc2Sc2ccc(Cl)cc21 [Chlorpromazine, reference compound] | – | – | – | 13.9 µM | – | – | – | IC50 (HepG2; same cell line (HepG2), 24 h incubation, ref Wang et al., 2002): 34.7 µM |
| O=C(N/N=C/c1ccc(Oc2ccccc2)cc1)c1ccncc1 [Compound N34, (E)-N'-(4-phenoxybenzylidene)isonicotinohydrazide] | 128 ± 5 µM | 130 µM and 110 µM and 70 µM | – | > 200 µM | 7.8 ± 0.3 10^3 M-1 | 521 µM | 0.95 ^a µM | – |
